Data: patent US5331006A, “Amino acid analogs as CCK antagonists” (Warner-Lambert Company, priority 1991, dated 1994)
Like-named read-outs stand apart in the source and are kept apart here.

Target: T1, CCK receptor sites (Mus musculus, UniProt P56481)
T1 construct: from tissue; host or cells: cerebral cortex membranes of male CFLP mice
T1 sequence (P56481 1-453): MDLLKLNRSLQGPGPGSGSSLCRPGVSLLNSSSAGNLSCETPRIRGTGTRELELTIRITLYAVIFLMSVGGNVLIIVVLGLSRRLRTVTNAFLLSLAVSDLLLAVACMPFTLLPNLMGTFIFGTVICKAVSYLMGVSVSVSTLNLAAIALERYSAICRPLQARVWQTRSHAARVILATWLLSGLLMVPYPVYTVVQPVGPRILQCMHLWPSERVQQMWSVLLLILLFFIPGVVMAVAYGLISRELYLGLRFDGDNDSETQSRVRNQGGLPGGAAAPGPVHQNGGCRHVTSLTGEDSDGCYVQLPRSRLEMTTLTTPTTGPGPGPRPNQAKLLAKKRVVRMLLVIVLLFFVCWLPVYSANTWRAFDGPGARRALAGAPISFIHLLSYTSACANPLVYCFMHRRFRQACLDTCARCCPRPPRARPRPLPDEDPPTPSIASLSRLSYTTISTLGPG
Assay: CCK receptor binding, displacement of tritiated pentagastrin from mouse cerebral cortex membranes
Design: key: IA = Inactive in respect to this binding assay
Conditions: 2 nM tritiated pentagastrin, mouse cerebral cortical membranes, Ki from IC50 by Cheng-Prusoff
Method: The biological activity of compounds of the present invention was evaluated employing an initial screening test which rapidly and accurately measured the binding of the tested compound to known CCK receptor sites. […] (See Hays, et al, Neuropeptides 1:53-62, 1980; and Satuer, et al, Science 208:1155-1156, 1980.)
In this screening test the cerebral cortices taken from male CFLP mice weighing between 30 to 40 g were dissected on ice, weighed, and homogenized in 10 volumes of 50 mM Tris-HCl buffer (pH 7.4 at 0° to 4° C.). The resulting suspension was centrifuged, the supernate was discarded, and the pellet was washed by resuspension in Tris-HCl buffer followed by recentrifugation. The final pellet was resuspended in 20 volumes of […] Hepes buffer (pH 7.2 at 23° C.) containing 130 mM NaCl, […] KCl, […] MgCl2, […] EDTA, 5 mg/mL bovine albumin, and bacitracin (0.25 mg/mL).
In saturation studies, cerebral cortical membranes were incubated at 23° C. for 120 minutes in a final volume of 500 μL of Hepes incubation buffer (pH 7.2) together with 0.2-20 nM tritiated-pentagastrin (Amersham International, England).
In the displacement experiments, membranes were incubated with a single concentration (2 nM) of ligand, together with increasing concentrations of competitive test compound. In each case, the nonspecific binding was defined as that persisting in the presence of the unlabeled octapeptide CCK26-33 (10^-6 M).
Following incubation, radioactivity bound to membranes was separated from that free in solution by rapid filtration through Whatman GF/B filters and washed three times with 4 mL of ice cold Tris-HCl buffer. Filters from samples incubated with tritiated pentagastrin were placed in polyethylene vials with 4 mL of scintillation cocktail, and the radioactivity was estimated by liquid scintillation spectrometry (efficiency 47% to 52%).
The specific binding to CCK receptor sites was defined as the total bound tritiated pentagastrin minus the amount of tritiated pentagastrin bound in the presence of 10^-6 octapeptide, CCK26-33.
Saturation curves for specific tritiated pentagastrin binding to mouse cortical membranes were analyzed by the methods of Scatchard (Ann. New York Acad. Sci. 51:660-672, 1949; Hill, J. Physiol. 40:IV-VIII, 1910) to provide estimates for the maximum number of binding sites (βmax)and the equilibrium dissociation constant (Ka).
In displacement experiments, inhibition curves were analyzed by either logit-log plots or the iterative curve fitting computer program ALLFIT (DeLean, Munson, and Redbard, 1978) to provide estimates of the IC50 and nH (apparent Hill coefficient) values). IC50 values were defined as the concentration of test compound required to produce 50% inhibition of specific binding).
The inhibition constant (Ki) of the test compound was then calculated according to the Cheng-Prusoff equation: [formula] where [L] is the concentration of radiolabel and Ka is the equilibrium dissociation constant.
The Ki values for several representative compounds of the present invention are present in Table II.

| SMILES | Ki (read-out: Ki) | Ki |
| --- | --- | --- |
| CC(Cc1cc2c3ccccc3n(S(C)(=O)=O)c2cn1)(NC(=O)OC1C2CC3CC(C2)CC1C3)C(=O)NC(CO)Cc1ccccc1 (centres unmarked) | 844 nM |  |
| CC(Cc1cc2c3ccccc3n(S(C)(=O)=O)c2cn1)(NC(=O)OC1C2CC3CC(C2)CC1C3)C(=O)NCCc1ccccc1 (centres unmarked) | 1990 nM |  |
| CC(Cc1cc2c(cn1)[nH]c1ccccc12)(NC(=O)OC1C2CC3CC(C2)CC1C3)C(=O)NCCc1ccccc1 (centres unmarked) | 2170 nM |  |
| CC(Cc1ccccn1)(NC(=O)OC1C2CC3CC(C2)CC1C3)C(=O)NCCc1ccccc1 (centres unmarked) | 3000 nM |  |
| CC(Cc1cc2c(cn1)[nH]c1ccccc12)(NC(=O)OC1C2CC3CC(C2)CC1C3)C(=O)NC(CO)Cc1ccccc1 (centres unmarked) | 1390 nM |  |
| CC(Cc1ccncc1)(NC(=O)OC1C2CC3CC(C2)CC1C3)C(=O)NCCc1ccccc1 (centres unmarked) | 3000 nM |  |
| CC(Cc1cccnc1)(NC(=O)OC1C2CC3CC(C2)CC1C3)C(=O)NCCc1ccccc1 (centres unmarked) |  | IA |
| CC(Cc1cnc2ccccc2c1)(NC(=O)OC1C2CC3CC(C2)CC1C3)C(=O)NCCc1ccccc1 (centres unmarked) | 304 nM |  |
| CC(Cc1ccc2ccccc2n1)(NC(=O)OC1C2CC3CC(C2)CC1C3)C(=O)NCC(NC(=O)CCC(=O)O)c1ccccc1 (centres unmarked) | 290 nM |  |
| CC(Cc1ccnc2ccccc12)(NC(=O)OC1C2CC3CC(C2)CC1C3)C(=O)NCC(NC(=O)CCC(=O)O)c1ccccc1 (centres unmarked) | 88 nM |  |
| CC(CC1CCc2ccccc2N1)(NC(=O)OC1C2CC3CC(C2)CC1C3)C(=O)NCC(NC(=O)CCC(=O)O)c1ccccc1 (centres unmarked) | 690 nM |  |
| CC(CC1C=Cc2ccccc2N1)(NC(=O)OC1C2CC3CC(C2)CC1C3)C(=O)NCC(NC(=O)CCC(=O)O)c1ccccc1 (centres unmarked) | 3000 nM |  |
| CC(Cc1ccc[n+]([O-])c1)(NC(=O)OC1C2CC3CC(C2)CC1C3)C(=O)NCCc1ccccc1 (centres unmarked) |  | IA |
| CC(Cc1ccncc1)(NC(=O)OC1C2CC3CC(C2)CC1C3)C(=O)NCC(NC(=O)CCC(=O)O)c1ccccc1 (centres unmarked) | 220 nM |  |
| CN1c2ccccc2C(c2ccccc2)=NCC1CC(C)(NC(=O)OC1C2CC3CC(C2)CC1C3)C(=O)NCC(NC(=O)CCC(=O)O)c1ccccc1 (centres unmarked) | 290 nM |  |
| CC(Cc1ccccn1)(NC(=O)OC1C2CC3CC(C2)CC1C3)C(=O)NC(CO)Cc1ccccc1 (single isomer, unassigned) [drawing 14 (Diast I)] | 1000 nM |  |
| CC(Cc1cccc[n+]1[O-])(NC(=O)OC1C2CC3CC(C2)CC1C3)C(=O)NC(CO)Cc1ccccc1 (single isomer, unassigned) [drawing 20] |  | IA |
| CC(Cc1cccc[n+]1[O-])(NC(=O)OC1C2CC3CC(C2)CC1C3)C(=O)NC(CO)Cc1ccccc1 (single isomer, unassigned) [drawing 22 (Diast II)] |  | IA |
| CC(Cc1cccc[n+]1[O-])(NC(=O)OC1C2CC3CC(C2)CC1C3)C(=O)NCCc1ccccc1 (centres unmarked) [drawing 22 (H H H H H)] |  | IA |
| CC(Cc1cccc2ccccc12)(NC(=O)OC1C2CC3CC(C2)CC1C3)C(=O)NC(CO)Cc1ccccc1 (centres unmarked) [drawing 24] | 720 nM |  |
| CC(Cc1cccc2ccccc12)(NC(=O)OC1C2CC3CC(C2)CC1C3)C(=O)NC(CO)Cc1ccccc1 (centres unmarked) [drawing 26] | 14 nM |  |
| CC(Cc1coc2ccccc12)(NC(=O)OC1C2CC3CC(C2)CC1C3)C(=O)NC(CO)Cc1ccccc1 (centres unmarked) [drawing 27 (H H CH2 OH H H)] | 360 nM |  |
| CC(Cc1coc2ccccc12)(NC(=O)OC1C2CC3CC(C2)CC1C3)C(=O)NCCc1ccccc1 (centres unmarked) [drawing 27 (H H H H H)] | 990 nM |  |
| CC(Cc1c(Br)oc2ccccc12)(NC(=O)OC1C2CC3CC(C2)CC1C3)C(=O)NC(CO)Cc1ccccc1 (centres unmarked) [drawing 28 (H H CH2 OH H H)] | 14 nM |  |

| SMILES | Ki (read-out: Ki) | Ki |
| --- | --- | --- |
| CC(Cc1c(Br)oc2ccccc12)(NC(=O)OC1C2CC3CC(C2)CC1C3)C(=O)NCCc1ccccc1 (centres unmarked) [drawing 28 (H H H H H)] | 1280 nM |  |
| CC(Cc1cccnc1)(NC(=O)OC1C2CC3CC(C2)CC1C3)C(=O)N[C@H](CO)Cc1ccccc1 (some centres unmarked) [drawing 32 (Diast I)] | 700 nM |  |
| CC(C)COC(=O)OC[C@H](Cc1ccccc1)NC(=O)C(C)(Cc1cccnc1)NC(=O)OC1C2CC3CC(C2)CC1C3 (some centres unmarked) [drawing 32 (H H CH2 OCO2 i-Bu H H)] | 3000 nM |  |
| CC(Cc1ccc2ccccc2n1)(NC(=O)OC1C2CC3CC(C2)CC1C3)C(=O)N[C@H](CO)Cc1ccccc1 (some centres unmarked) [drawing 36 (Diast I)] | 410 nM |  |
| CC(Cc1ccc2ccccc2n1)(NC(=O)OC1C2CC3CC(C2)CC1C3)C(=O)NCCc1ccccc1 (centres unmarked) [drawing 36 (H H H H H)] | 400 nM |  |
| CC(Cc1n[nH]c2ccccc12)(NC(=O)OC1C2CC3CC(C2)CC1C3)C(=O)N[C@H](CO)Cc1ccccc1 (some centres unmarked) [drawing 38 (H H CH2 OH H H)] | 69 nM |  |
| CC(Cc1n[nH]c2ccccc12)(NC(=O)OC1C2CC3CC(C2)CC1C3)C(=O)NCCc1ccccc1 (centres unmarked) [drawing 38 (H H H H H)] | 100 nM |  |
| CC(Cc1ccnc2ccccc12)(NC(=O)OC1C2CC3CC(C2)CC1C3)C(=O)N[C@H](CO)Cc1ccccc1 (some centres unmarked) [drawing 40 (H H CH2 OH H H)] | 129 nM |  |
| CC(Cc1ccnc2ccccc12)(NC(=O)OC1C2CC3CC(C2)CC1C3)C(=O)NCCc1ccccc1 (centres unmarked) [drawing 40 (H H H H H)] | 262 nM |  |
| CC(Cc1ccc2ccccc2n1)(NC(=O)OC1C2CC3CC(C2)CC1C3)C(=O)NC(CO)Cc1ccccc1 (centres unmarked) [drawing 43 (H H CH2 OH H H)] | 402 nM |  |
| CC(Cc1csc2ccccc12)(NC(=O)OC1C2CC3CC(C2)CC1C3)C(=O)N[C@H](CO)Cc1ccccc1 (some centres unmarked) [drawing 47 (H H CH2 OH H H)] | 455 nM |  |
| CC(Cc1csc2ccccc12)(NC(=O)OC1C2CC3CC(C2)CC1C3)C(=O)NCCc1ccccc1 (centres unmarked) [drawing 47 (H H H H H)] | 760 nM |  |
| CC(Cc1n[nH]c2ccccc12)(NC(=O)OC1C2CC3CC(C2)CC1C3)C(=O)NCC(NC(=O)CCC(=O)O)c1ccccc1 (centres unmarked) [drawing 53 (H H H H NHCOCH2 CH2 COOH)] | 96 nM |  |
| CC(Cc1n[nH]c2ccccc12)(NC(=O)OC1C2CC3CC(C2)CC1C3)C(=O)NCC(c1ccccc1)N1C(=O)CCC1=O (centres unmarked) [drawing 53/drawing 54 (Diast I)] |  | IA |
| CC(Cc1n[nH]c2ccccc12)(NC(=O)OC1C2CC3CC(C2)CC1C3)C(=O)NCC(c1ccccc1)N1C(=O)CCC1=O (centres unmarked) [drawing 53/drawing 54 (Diast II)] | 220 nM |  |
| Cc1[nH]cc(CC(C)(NC(=O)OC2C3CC4CC(C3)CC2C4)C(=O)NC(CO)C(O)c2ccccc2)c1C (centres unmarked) [drawing 56 (H H CH2 OH H OH)] | 3000 nM |  |
| Cc1[nH]cc(CC(C)(NC(=O)OC2C3CC4CC(C3)CC2C4)C(=O)NCCc2ccccc2)c1C (centres unmarked) [drawing 56 (H H H H H)] |  | IA |
| CC(Cc1ncc2ccccn12)(NC(=O)OC1C2CC3CC(C2)CC1C3)C(=O)N[C@@H](CO)[C@@H](O)c1ccccc1 (some centres unmarked) [drawing 57 (H H CH2 OH H OH)] | 750 nM |  |
| CC(Cc1ncc2ccccn12)(NC(=O)OC1C2CC3CC(C2)CC1C3)C(=O)NCCc1ccccc1 (centres unmarked) [drawing 57 (H H H H H)] | 930 nM |  |
| CC(Cc1ccc[n+]([O-])c1)(NC(=O)OC1C2CC3CC(C2)CC1C3)C(=O)NC(CO)Cc1ccccc1 (centres unmarked) [drawing 60 (Diast I)] |  | IA |
| CC(Cc1ccncc1)(NC(=O)OC1C2CC3CC(C2)CC1C3)C(=O)NC(CO)Cc1ccccc1 (centres unmarked) [drawing 61 (Diast I)] | 370 nM |  |
| CC(Cc1ccncc1)(NC(=O)OC1C2CC3CC(C2)CC1C3)C(=O)NC(CO)Cc1ccccc1 (centres unmarked) [drawing 61 (Diast II)] |  | IA |
| CN1c2ccccc2C(c2ccccc2)=NCC1CC(C)(NC(=O)OC1C2CC3CC(C2)CC1C3)C(=O)NCCc1ccccc1 (centres unmarked) [drawing 64 (Diast I)] | 760 nM |  |
